The source of these data is ChEMBL document CHEMBL4406896, “Pyrenocine A induces monopolar spindle formation and suppresses proliferation of cancer cells” (Bioorg Med Chem, 2019).

Activity calls are given as the source filed them. The rule behind the calls is not given here.

The subject of data set [1] is HeLa. The data set is described as follows: Antiproliferative activity against human HeLa cells incubated for 48 hrs by WST8 assay. In kind it is functional, cell-based.
Data set [2] has as its system HeLa. The data set is described as follows: Induction of cell cycle arrest in S phase synchronized human HeLa cells stably expressing GFP-HistoneH1 fusion protein assessed as increase in formation of ring shaped chromosomes incubated for 4 hrs by inverted fluorescence microscopic method. In kind it is functional, cell-based.
Data set [3] relates to HeLa. The data set is described as follows: Induction of cell cycle arrest in S phase synchronized human HeLa cells stably expressing GFP-HistoneH1 fusion protein assessed as increase in total mitotic cells at 1 uM incubated for 6 hrs by inverted fluorescence microscopic method relative to control. Type of data set: functional.
For a further data set, the system named is Huh-7. Briefly: Antiproliferative activity against human HuH7 cells incubated for 48 hrs by WST8 assay. The conditions noted are these: Huh-7, 48 h. Type of data set: functional, cell-based. On the technique in general: Tetrazolium dyes change colour on reduction, which living cells bring about.
For data set [4], the target named is T1, Kinesin-like protein KIF11 (Homo sapiens) (UniProt P52732).
T1 sequence (whole entry): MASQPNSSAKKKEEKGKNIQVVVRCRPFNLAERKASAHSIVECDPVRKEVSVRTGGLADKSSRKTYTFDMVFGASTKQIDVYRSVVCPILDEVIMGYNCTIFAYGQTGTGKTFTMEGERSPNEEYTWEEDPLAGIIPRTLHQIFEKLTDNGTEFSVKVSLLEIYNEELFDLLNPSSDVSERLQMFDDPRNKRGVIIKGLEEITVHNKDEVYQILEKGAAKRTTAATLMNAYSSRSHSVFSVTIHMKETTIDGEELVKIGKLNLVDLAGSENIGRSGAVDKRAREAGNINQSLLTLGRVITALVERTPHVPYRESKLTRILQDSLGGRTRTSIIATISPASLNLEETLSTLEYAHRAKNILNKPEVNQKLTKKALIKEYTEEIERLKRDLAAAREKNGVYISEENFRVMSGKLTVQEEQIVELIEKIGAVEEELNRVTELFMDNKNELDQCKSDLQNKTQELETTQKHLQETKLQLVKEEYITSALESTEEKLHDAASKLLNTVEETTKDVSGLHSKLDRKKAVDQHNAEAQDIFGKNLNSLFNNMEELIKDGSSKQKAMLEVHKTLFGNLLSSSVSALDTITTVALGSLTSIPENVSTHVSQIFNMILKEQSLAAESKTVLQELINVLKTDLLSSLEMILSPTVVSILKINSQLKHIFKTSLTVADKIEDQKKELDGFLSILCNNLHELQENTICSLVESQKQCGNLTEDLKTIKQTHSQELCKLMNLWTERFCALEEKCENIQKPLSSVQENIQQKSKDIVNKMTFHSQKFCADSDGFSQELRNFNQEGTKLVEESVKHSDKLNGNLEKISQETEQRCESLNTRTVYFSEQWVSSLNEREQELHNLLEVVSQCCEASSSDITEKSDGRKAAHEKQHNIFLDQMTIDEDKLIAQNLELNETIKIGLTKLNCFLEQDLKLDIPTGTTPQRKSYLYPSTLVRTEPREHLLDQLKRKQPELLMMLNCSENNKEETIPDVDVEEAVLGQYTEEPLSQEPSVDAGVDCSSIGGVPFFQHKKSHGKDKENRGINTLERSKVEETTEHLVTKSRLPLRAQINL
Briefly: Inhibition of human Eg5 motor domain (1 to 368 residues) expressed in Escherichia coli assessed as reduction in microtubule-stimulated ATPase activity at 100 uM incubated with ATP for 6 mins by malachite green method.

For another data set, the system named is HCT-116. The data set is described as follows: Antiproliferative activity against human HCT116 cells incubated for 48 hrs by WST8 assay. In kind it is functional, cell-based. The conditions noted are these: HCT-116, 48 h.
Data set [5] has as its system HeLa. The data set is described as follows: Induction of cell cycle arrest in S phase synchronized human HeLa cells stably expressing GFP-HistoneH1 fusion protein assessed as chromosomes division at 5 uM incubated for 3 hrs by inverted fluorescence microscopic method. In kind it is functional, cell-based.
Data set [6] has as its system HeLa. Briefly: Induction of cell cycle arrest in S phase synchronized human HeLa cells stably expressing GFP-HistoneH1 fusion protein assessed as increase in total mitotic cells at 5 uM incubated for 6 hrs by inverted fluorescence microscopic method relative to control. Type of data set: functional.
Data set [7] concerns HeLa. The data set is described as follows: Induction of cell cycle arrest in S phase synchronized human HeLa cells stably expressing GFP-HistoneH1 fusion protein assessed as chromosomes alignment at 5 uM incubated for 3 hrs by inverted fluorescence microscopic method. Type of data set: functional, cell-based.
For data set [8], the system named is HeLa. The data set is described as follows: Induction of cell cycle arrest in human HeLa cells assessed as mono-polar spindles formation surrounded by ring shaped chromosomes in mitotic cells at 5 uM incubated for 6 hrs by Hoechst 33342 staining based confocal microscopic method. In kind it is functional.
The subject of a further data set is A549. Briefly: Antiproliferative activity against human A549 cells incubated for 48 hrs by WST8 assay. In kind it is functional, cell-based. The note with it: A549, 48 h.
The test system of data set [9] is HeLa. The data set is described as follows: Induction of cell cycle arrest in S phase synchronized human HeLa cells stably expressing GFP-HistoneH1 fusion protein assessed as formation of ring shaped chromosomes at 5 uM incubated for 4 hrs by inverted fluorescence microscopic method. Type of data set: functional, cell-based.
The test system of data set [10] is HeLa. The data set is described as follows: Induction of cell cycle arrest in S phase synchronized human HeLa cells stably expressing GFP-HistoneH1 fusion protein assessed as increase in total mitotic cells at 10 uM incubated for 6 hrs by inverted fluorescence microscopic method relative to control. Type of data set: functional.
The subject of data set [11] is HeLa. The data set is described as follows: Cytotoxicity against human HeLa cells assessed as cell death at 5 to […] incubated for 48 hrs by LDH assay relative to control. Type of data set: cell-based.
Data set [12] has as its system HeLa. The data set is described as follows: Induction of cell cycle arrest in human HeLa cells assessed as mono-polar spindles formation surrounded by ring shaped chromosomes in mitotic cells at 3 uM incubated for 6 hrs by Hoechst 33342 staining based confocal microscopic method. In kind it is functional.

Consider `C#CCOCC/C=C/C(=O)c1c(OC)cc(=O)oc1C`, for which, in the data set on HeLa [1], the IC50 (as a rule, the concentration that gives 50% inhibition) worked out at 2300 nM. Besides, the result in the data set on HeLa [2] was Active.

Take `CCCC(=O)c1c(OC)cc(=O)oc1C`: the IC50 with HeLa [1] was > 100000 nM.

Take `C/C=C/Cc1c(O)cc(=O)oc1C`: the IC50 in the data set with HeLa [1] is > 100000 nM.

For `C/C=C/C(=O)c1c(OC)cc(=O)oc1C`, the Activity in the data set with HeLa [3] was 2%; in the data set on HeLa [2], “Dose-dependent effect”; in the data set with HeLa [6] it was 7%; in the data set on HeLa [10] it was 14%; with HeLa [11] it was 0 to 6%. The IC50 is 8600 nM in the data set with Huh-7, 2600 nM in the data set with HCT-116, 9300 nM in the data set on HeLa [1] and 12900 nM in the data set with A549. Further, the result (in data set [4]; in the data set with HeLa [5]; in the data set with HeLa [7]) was inactive. Besides, the result in the data set on HeLa [8] and with HeLa [9] was Active.

Consider `COc1cccc2c1C(=O)c1c(O)c3c(c(O)c1C2=O)C[C@@](O)(C(=O)CO)C[C@@H]3O[C@H]1C[C@H](N)[C@H](O)[C@H](C)O1` [DOXORUBICIN], for which the IC50 is 220 nM in the data set on Huh-7, 250 nM with HCT-116, 400 nM in the data set with HeLa [1] and 240 nM in the data set on A549.

`N[C@@H](CSC(c1ccccc1)(c1ccccc1)c1ccccc1)C(=O)O`: the outcome with HeLa [12] was Active.

In the data set on HeLa [1], `COc1cc(=O)oc(C)c1C(=O)CC(C)O` (centres undefined) registered an IC50 of 22300 nM. That is a double-digit micromolar value.
